For data set [1], the species on record is Mus musculus. The experiment in a line: Ratio of median tumor weight of the treated mice /control mice. The data set is classed as functional.
The next data set relates to P388. The experiment in a line: In vitro cytotoxicity against murine P388 lymphocytic leukemia cells. The note with it: Mus musculus. It is filed as functional, cell-based.
Data set [2] has as its target Tubulin alpha chain (Sus scrofa) (UniProt P02550). The experiment in a line: Tested for 50% inhibition of the rate of microtubule disassembly to that paclitaxel. It is filed as functional.
Data set [3] concerns Mus musculus. The experiment in a line: In vivo antitumor activity against B16 melanoma cells in mice. The data set is classed as functional.
For data set [4], the species on record is Mus musculus. Description: Ratio of median tumor weight of the treated mice /control mice; non evaluable: immediate death after injection (insoluble compound). The note with it: in vivo. The data set is classed as ADME, organism-based.
For data set [5], the species on record is Mus musculus. Description: Ratio of median tumor weight of the treated mice /control mice; non evaluable: delayed toxicity. The data set is classed as organism-based. Conditions: in vivo.

The structures appear in SMILES notation. Converted amounts (≈) assume the structure as drawn.

Tubulin alpha chain (Sus scrofa), sequence (P02550 whole entry, looked up): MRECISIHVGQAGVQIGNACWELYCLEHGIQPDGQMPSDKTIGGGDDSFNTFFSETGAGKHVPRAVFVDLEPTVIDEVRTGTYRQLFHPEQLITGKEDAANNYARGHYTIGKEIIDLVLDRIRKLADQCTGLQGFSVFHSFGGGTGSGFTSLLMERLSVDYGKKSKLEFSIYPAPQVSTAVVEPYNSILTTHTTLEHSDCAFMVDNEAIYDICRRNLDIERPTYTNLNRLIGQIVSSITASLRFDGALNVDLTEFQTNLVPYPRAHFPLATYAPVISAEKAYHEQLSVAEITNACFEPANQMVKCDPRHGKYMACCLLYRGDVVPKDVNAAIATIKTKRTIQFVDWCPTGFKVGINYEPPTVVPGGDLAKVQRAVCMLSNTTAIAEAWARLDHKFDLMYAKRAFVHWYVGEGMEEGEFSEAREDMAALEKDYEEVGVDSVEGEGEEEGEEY

On to `C=C(C)c1ccc([C@H](NC(=O)OC(C)(C)C)[C@@H](O)C(=O)O[C@H]2C[C@@]3(O)[C@@H](OC(=O)c4ccccc4)[C@@H]4[C@]5(OC(C)=O)CO[C@@H]5C[C@H](O)[C@@]4(C)C(=O)[C@H](O)C(=C2C)C3(C)C)cc1`, for which the T/C (usually the ratio of treated to control) in the data set filed under Mus musculus [1] was found to be 105%. For the same compound, the IC50 (usually the concentration that inhibits the measured activity by half) in the data set with P388 is 0.35 µg/mL (≈ 0.413 µM). Besides, the IC50 ratio in data set [2] came to 1.8. In the data set with Mus musculus [3], this compound gave a Max tolerated dose of 20 mg/kg/day.

As to `CC(=O)O[C@@]12CO[C@@H]1C[C@H](O)[C@@]1(C)C(=O)[C@H](O)C3=C(C)[C@@H](OC(=O)[C@H](O)[C@@H](NC(=O)OC(C)(C)C)c4ccc(C(C)=O)cc4)C[C@@](O)([C@@H](OC(=O)c4ccccc4)[C@H]21)C3(C)C`, in the data set listed under Mus musculus [1], the T/C is recorded as 10%. The IC50 in the data set with P388 was found to be 0.19 µg/mL (≈ 0.224 µM). For the same compound, the IC50 ratio in data set [2] came to 0.95. In the data set with Mus musculus [3], the Max tolerated dose is 35.3 mg/kg/day.

Turning to `CC(=O)O[C@@]12CO[C@@H]1C[C@H](O)[C@@]1(C)C(=O)[C@H](O)C3=C(C)[C@@H](OC(=O)[C@H](O)[C@@H](NC(=O)OC(C)(C)C)c4ccc(-c5ccccc5)cc4)C[C@@](O)([C@@H](OC(=O)c4ccccc4)[C@H]21)C3(C)C`, in the data set filed under Mus musculus [1], the T/C is listed as 40%. In the data set with P388, this compound came in with an IC50 of 0.65 µg/mL (≈ 0.735 µM). Also, in data set [2], the IC50 ratio came to 2. This compound displayed a Max tolerated dose in the data set on Mus musculus [3] of 35 mg/kg/day.

As for `C=Cc1ccc([C@H](NC(=O)OC(C)(C)C)[C@@H](O)C(=O)O[C@H]2C[C@@]3(O)[C@@H](OC(=O)c4ccccc4)[C@@H]4[C@]5(OC(C)=O)CO[C@@H]5C[C@H](O)[C@@]4(C)C(=O)[C@H](O)C(=C2C)C3(C)C)cc1`, the T/C in the data set listed under Mus musculus [1] turned out to be 19%. Further, in the data set with P388, the IC50 came out at 0.06 µg/mL (≈ 0.0719 µM). Further, in data set [2], the IC50 ratio worked out at 0.7. Also, the Max tolerated dose with Mus musculus [3] amounted to 38.3 mg/kg/day.

As for `CC(=O)O[C@@]12CO[C@@H]1C[C@H](O)[C@@]1(C)C(=O)[C@H](O)C3=C(C)[C@@H](OC(=O)[C@H](O)[C@@H](NC(=O)OC(C)(C)C)c4ccc(C=O)cc4)C[C@@](O)([C@@H](OC(=O)c4ccccc4)[C@H]21)C3(C)C`, the T/C entry in the data set filed under Mus musculus [4] is listed as “non evaluable: immediate death after injection (insoluble compound)”. The same compound displayed an IC50 in the data set on P388 of 0.13 µg/mL (≈ 0.156 µM). Further, in data set [2], the IC50 ratio stood at 0.75. Also, the Max tolerated dose in the data set with Mus musculus [3] was <13.4 mg/kg/day.

`CC(=O)O[C@@]12CO[C@@H]1C[C@H](O)[C@@]1(C)C(=O)[C@H](O)C3=C(C)[C@@H](OC(=O)[C@H](O)[C@@H](NC(=O)OC(C)(C)C)c4ccc(CO)cc4)C[C@@](O)([C@@H](OC(=O)c4ccccc4)[C@H]21)C3(C)C` yielded an IC50 in the data set on P388 of 0.06 µg/mL (≈ 0.0716 µM). Besides, the IC50 ratio in data set [2] amounted to 0.4. The T/C entry in the data set listed under Mus musculus [5] is “non evaluable: delayed toxicity”. In addition, the Max tolerated dose with Mus musculus [3] was <4.8 mg/kg/day.

As for `CC(=O)O[C@@]12CO[C@@H]1C[C@H](O)[C@@]1(C)C(=O)[C@H](O)C3=C(C)[C@@H](OC(=O)[C@H](O)[C@@H](NC(=O)OC(C)(C)C)c4ccc(C)cc4)C[C@@](O)([C@@H](OC(=O)c4ccccc4)[C@H]21)C3(C)C`, the T/C in the data set filed under Mus musculus [1] is on record as 8%. For the same compound, the IC50 in the data set on P388 came to 0.04 µg/mL (≈ 0.0487 µM). The IC50 ratio in data set [2] was 1.3. In the data set on Mus musculus [3], this compound returned a Max tolerated dose of 15.5 mg/kg/day.

`CC(=O)O[C@@]12CO[C@@H]1C[C@H](O)[C@@]1(C)C(=O)[C@H](O)C3=C(C)[C@@H](OC(=O)[C@H](O)[C@@H](NC(=O)OC(C)(C)C)c4ccccc4)C[C@@](O)([C@@H](OC(=O)c4ccccc4)[C@H]21)C3(C)C.O.O.O` [DOCETAXEL]: the T/C in the data set filed under Mus musculus [1] was 0%. In the data set with P388, this compound returned a concentration for half-maximal inhibition (IC50) of 0.04 µg/mL. In addition, the IC50 ratio in data set [2] was 0.64. The same compound had a Max tolerated dose in the data set with Mus musculus [3] of 13.4 mg/kg/day.

In the case of `CC(=O)O[C@@]12CO[C@@H]1C[C@H](O)[C@@]1(C)C(=O)[C@H](O)C3=C(C)[C@@H](OC(=O)[C@H](O)[C@@H](NC(=O)OC(C)(C)C)c4ccc(C(=O)c5ccccc5)cc4)C[C@@](O)([C@@H](OC(=O)c4ccccc4)[C@H]21)C3(C)C`, in the data set listed under Mus musculus [1], the T/C came to 95%. Besides, the IC50 in the data set on P388 was > 1 µg/mL. In addition, the IC50 ratio in data set [2] is 20. Moreover, the Max tolerated dose in the data set on Mus musculus [3] is 20 mg/kg/day.

As for `C#Cc1ccc([C@H](NC(=O)OC(C)(C)C)[C@@H](O)C(=O)O[C@H]2C[C@@]3(O)[C@@H](OC(=O)c4ccccc4)[C@@H]4[C@]5(OC(C)=O)CO[C@@H]5C[C@H](O)[C@@]4(C)C(=O)[C@H](O)C(=C2C)C3(C)C)cc1`, the T/C in the data set filed under Mus musculus [1] is listed as 15%. For the same compound, the IC50 with P388 worked out at 0.085 µg/mL (≈ 0.102 µM). For the same compound, the IC50 ratio in data set [2] stood at 0.6. The Max tolerated dose with Mus musculus [3] amounted to 21.7 mg/kg/day.

Source of the values: ChEMBL document CHEMBL1128875, “Synthesis and biological activity of Para-substituted 3-phenyl docetaxel analogs” (Bioorg Med Chem Lett, 1995).
